Experimental data: ChEMBL document CHEMBL1134097, “Cyclooxygenase-inhibitory and antioxidant constituents of the aerial parts of Antirhea acutata” (Bioorg Med Chem Lett, 2001); call rule not given here
Values belong to the compound of their own block, whether it stands above or below them.

What was measured:
[1] = Activity determined by cytochrome c reduction antioxidant assay; type: functional
[2] = Activity determined by 1,1-diphenyl-2-picrylhydrazyl (DPPH) free radical antioxidant assay; type: functional
[3] = target: T1, Prostaglandin G/H synthase 1 (Homo sapiens, UniProt P23219); assay: Inhibitory concentration against Prostaglandin G/H synthase 1
T1 sequence (P23219 whole entry): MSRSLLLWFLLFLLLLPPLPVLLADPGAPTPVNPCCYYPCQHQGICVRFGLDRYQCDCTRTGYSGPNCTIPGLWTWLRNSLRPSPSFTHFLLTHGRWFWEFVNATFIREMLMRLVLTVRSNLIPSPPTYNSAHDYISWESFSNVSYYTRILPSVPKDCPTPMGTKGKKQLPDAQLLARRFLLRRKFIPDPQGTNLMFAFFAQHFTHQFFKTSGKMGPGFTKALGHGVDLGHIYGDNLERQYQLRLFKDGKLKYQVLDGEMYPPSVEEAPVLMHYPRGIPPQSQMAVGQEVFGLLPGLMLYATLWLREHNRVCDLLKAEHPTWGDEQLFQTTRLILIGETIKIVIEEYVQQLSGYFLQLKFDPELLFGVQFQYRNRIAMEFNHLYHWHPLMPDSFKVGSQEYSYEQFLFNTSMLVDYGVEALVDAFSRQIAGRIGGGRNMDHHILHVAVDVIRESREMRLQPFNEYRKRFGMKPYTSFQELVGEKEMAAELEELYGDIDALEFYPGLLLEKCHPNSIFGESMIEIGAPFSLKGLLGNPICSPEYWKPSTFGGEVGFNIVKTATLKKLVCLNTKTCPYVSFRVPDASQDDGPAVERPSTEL

[4] = target: T2, Prostaglandin G/H synthase 2 (Homo sapiens, UniProt P35354); assay: Inhibitory concentration against Prostaglandin G/H synthase 2
T2 sequence (P35354 whole entry): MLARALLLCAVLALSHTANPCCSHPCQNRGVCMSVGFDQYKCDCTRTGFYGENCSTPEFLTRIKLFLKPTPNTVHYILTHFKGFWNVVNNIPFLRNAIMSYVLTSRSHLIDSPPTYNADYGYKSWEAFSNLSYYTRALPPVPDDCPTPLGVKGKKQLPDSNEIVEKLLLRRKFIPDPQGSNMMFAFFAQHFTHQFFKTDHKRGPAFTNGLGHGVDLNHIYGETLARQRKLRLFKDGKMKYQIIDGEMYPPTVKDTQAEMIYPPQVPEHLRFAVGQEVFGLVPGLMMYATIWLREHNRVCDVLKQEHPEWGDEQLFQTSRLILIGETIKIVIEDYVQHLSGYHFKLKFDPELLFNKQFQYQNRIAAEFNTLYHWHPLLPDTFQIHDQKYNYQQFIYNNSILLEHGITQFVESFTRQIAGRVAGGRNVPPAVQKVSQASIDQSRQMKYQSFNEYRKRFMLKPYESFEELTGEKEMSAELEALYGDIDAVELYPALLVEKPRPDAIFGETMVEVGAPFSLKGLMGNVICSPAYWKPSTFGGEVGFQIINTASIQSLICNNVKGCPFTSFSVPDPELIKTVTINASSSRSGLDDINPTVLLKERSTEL

[5] = target: T2, Prostaglandin G/H synthase 2; assay: Activity against Prostaglandin G/H synthase 2 at > 70 ug/mL; inactive
[6] = target: T1, Prostaglandin G/H synthase 1; assay: Activity against Prostaglandin G/H synthase 1 at > 70 ug/mL; inactive

IC50 [1]: 16.3 µM | IC50 [2]: 29.1 µM
SMILES: COC(=O)C[C@H](c1ccc(O)c(O)c1)c1c(O)cc(O)c2c1O[C@H](c1ccc(O)c(O)c1)[C@H](O)C2

IC50 [3]: 43.7 µM | IC50 [4]: 4.7 µM
SMILES: C=C[C@@H]1[C@@H](O)C[C@@H]2[C@]3(CC[C@]4(C)[C@@H]([C@H](C)CCC=C(C)C)CC[C@@]24C)C[C@]13CCC(=O)O

IC50 [5]: Not Active | IC50 [6]: Not Active
SMILES: C[C@H](CC[C@H](O)C(C)(C)O)[C@H]1CC[C@@]2(C)[C@@H]3CCC4[C@@]5(CC[C@H](O)[C@@]4(C)C(=O)O)C[C@@]35CC[C@]12C (stereo partly specified)
